We go through 20 molecules from patent US8263606B2 (Xenon Pharmaceuticals Inc., priority 2008, dated 2012).

In one data set the test system is sodium channel. Nature of the data set: Guanidine influx assay (14C-guanidine radiotracer flux, in vitro). As to conditions: guanidine influx assay using a known cell line that expresses a sodium channel; activity level class. The format is cell-based, human or rat. The essentials: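 Test agents at half-step dilutions around 1 μM are added to plated cells in low-sodium HEPES buffer, then an aconitine/14C-guanidine mixture; after ambient-temperature incubation, cells are washed and counted. IC50 comes from a sigmoidal fit.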

For the next data set, the target named is CYP3A4 (Homo sapiens, UniProt P08684). As to the kind of experiment: Cytochrome P450 (CYP450) Inhibition Assay, CYP3A4 (Vivid fluorescence, BOMCC substrate). As to conditions: human, P450 Baculosomes (recombinant CYP3A4), probe BOMCC (Vivid substrate).
CYP3A4, sequence (P08684 whole entry): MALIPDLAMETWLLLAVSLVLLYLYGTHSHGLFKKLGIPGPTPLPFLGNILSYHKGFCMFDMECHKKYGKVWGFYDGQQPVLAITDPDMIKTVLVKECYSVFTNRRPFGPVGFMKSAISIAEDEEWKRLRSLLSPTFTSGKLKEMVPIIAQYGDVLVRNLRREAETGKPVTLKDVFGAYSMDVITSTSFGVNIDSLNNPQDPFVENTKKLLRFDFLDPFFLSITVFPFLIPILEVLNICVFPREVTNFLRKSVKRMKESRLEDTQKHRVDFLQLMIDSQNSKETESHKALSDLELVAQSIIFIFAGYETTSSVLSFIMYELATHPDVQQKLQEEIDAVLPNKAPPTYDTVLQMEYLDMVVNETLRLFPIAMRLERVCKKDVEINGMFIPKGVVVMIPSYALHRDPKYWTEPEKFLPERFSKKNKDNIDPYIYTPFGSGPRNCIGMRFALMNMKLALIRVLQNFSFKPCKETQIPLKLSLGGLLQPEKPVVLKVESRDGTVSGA

For orientation: melting point means the temperature of the solid-liquid transition. As usually defined, the IC50 is the concentration at which inhibition is half-maximal. The term inhibition denotes the change of the read-out against control, counted positive when it falls. Regarding `N#Cc1cc2c(cc1F)OCC21C(=O)Nc2ccccc21` (stereo not drawn) [Example 3.30, 6-fluoro-2′-oxo-1′,2′-dihydrospiro[1-benzofuran-3,3′-indole]-5-carbonitrile], the melting point lay within 222 to 224 °C. Also, the IC50 in the data set on sodium channel fell in the range of 1000 to 10000 nM. Moreover, the inhibition at 10 µM on CYP3A4 was under 50%.

In turn, `O=C1Nc2cccc(F)c2C12COc1cc3c(cc12)OCCO3` (stereo not drawn) [Example 3.33, 4′-fluoro-2,3-dihydrospiro[furo[2,3-g][1,4]benzodioxine-8,3′-indol]-2′(1′H)-one] registered a melting point of 282 to 285 °C. The 50% inhibitory concentration (IC50) with sodium channel fell in the range of 1 to 100 nM. Further, on CYP3A4, the inhibition at 10 µM was under 50%.

As for `O=C1Nc2ccccc2C12COc1c(Cl)cc3c(c12)OCCO3` (stereo not drawn) [Example 3.42, 6-chloro-2,3-dihydrospiro[furo[3,2-f][1,4]benzodioxine-9,3′-indol]-2′(1′H)-one], the melting point lay in the range of 255 to 257 °C. Besides, in the data set with sodium channel, the concentration for half-maximal inhibition (IC50) was 1000 to 10000 nM. The inhibition at 10 µM at CYP3A4 was under 50%.

With `O=C1Nc2ccccc2C12COc1cc(F)c(F)cc12` (stereo not drawn) [Example 3.44, 5,6-difluorospiro[1-benzofuran-3,3′-indol]-2′(1′H)-one], the melting point was over 200 °C. In the data set with sodium channel, the IC50 was in the range of 1000 to 10000 nM. For the same molecule, on CYP3A4, the inhibition at 10 µM was over 50%.

`O=C1Nc2ccccc2C12COc1cc3c(cc12)CCCC3` (stereo not drawn) [Example 3.45, 5′,6′,7′,8′-tetrahydrospiro[indole-3,3′-naphtho[2,3-b]furan]-2(1′H)-one] showed a melting point of over 230 °C. The 50% inhibitory concentration (IC50) with sodium channel was in the range of 1000 to 10000 nM. The inhibition at 10 µM at CYP3A4 was over 50%.

The molecule `COCCOc1ccc2c(c1)OCC21C(=O)Nc2ccccc21` (stereo not drawn) [Example 3.46, 6-(2-methoxyethoxy)spiro[1-benzofuran-3,3′-indol]-2′(1′H)-one] registered a melting point of 172 to 174 °C. The IC50 in the data set on sodium channel was in the range of 1000 to 10000 nM. Also, the inhibition at 10 µM at CYP3A4 was under 50%.

The molecule `O=C1Nc2ccccc2C12COc1c2ccc2c1OCCO2` (stereo not drawn) [Example 3.48, 2,3-dihydrospiro[furo[2,3-f][1,4]benzodioxine-7,3′-indol]-2′(1′H)-one] gave a melting point of over 250 °C. In addition, the IC50 with sodium channel fell in the range of 1000 to 10000 nM. The inhibition at 10 µM at CYP3A4 was under 50%.

`O=C1Nc2ccccc2C12COc1cc3nccnc3cc12` (stereo not drawn) [Example 3.51, spiro[furo[2,3-g]quinoxaline-8,3′-indol]-2′(1′H)-one] returned a melting point of 206 to 207 °C. The IC50 in the data set on sodium channel fell in the range of 1000 to 10000 nM. The inhibition at 10 µM at CYP3A4 is under 50%.

For the molecule `N#Cc1ccc(CN2C(=O)C3(COc4cc5c(cc43)CCO5)c3ccccc32)cc1` (stereo not drawn) [Example 4.23, 4-((2′-oxo-5,6-dihydro-2H-spiro[benzofuro[6,5-b]furan-3,3′-indoline]-1′-yl)methyl)benzonitrile], the melting point was in the range of 69 to 71 °C. Besides, the IC50 in the data set with sodium channel lay in the range of 1 to 100 nM. Further, the inhibition at 10 µM on CYP3A4 is under 50%.

`N#Cc1ccccc1-c1ccc(CN2C(=O)C3(COc4cc5c(cc43)CCO5)c3ccccc32)cc1` (stereo not drawn) [Example 4.24, 4′-[(2′-oxo-5,6-dihydrospiro[benzo[1,2-b:5,4-b′]difuran-3,3′-indol]-1′(2′H)-yl)methyl]biphenyl-2-carbonitrile] registered a melting point of 192 to 194 °C. Moreover, the IC50 in the data set on sodium channel lay in the range of 100 to 1000 nM. The inhibition at 10 µM at CYP3A4 was under 50%.

In turn, `C[C@@H](CN1C(=O)C2(COc3cc4c(cc32)CCO4)c2ccccc21)OCOCc1ccccc1` (stereo partly drawn) [Example 4.25, 1′-{(2S)-2-[(benzyloxy)methoxy]propyl}-5,6-dihydrospiro[benzo[1,2-b:5,4-b′]difuran-3,3′-indol]-2′(1′H)-one] displayed a melting point of 49 to 52 °C. Besides, the IC50 with sodium channel lay in the range of 100 to 1000 nM. For the same molecule, the inhibition at 10 µM on CYP3A4 was over 50%.

`O=C1N(Cc2ccc3c(c2)OCCO3)c2ccccc2C12COc1cc3c(cc12)CCO3` (stereo not drawn) [Example 4.26, 1′-(2,3-dihydro-1,4-benzodioxin-6-ylmethyl)-5,6-dihydrospiro[benzo[1,2-b:5,4-b′]difuran-3,3′-indol]-2′(1′H)-one]: the melting point lay in the range of 173 to 175 °C. For the same molecule, in the data set with sodium channel, the IC50 is 1 to 100 nM. At CYP3A4, the inhibition at 10 µM is under 50%.

Molecule `O=C1N(Cc2ccc(C(F)(F)F)o2)c2cccc(Cl)c2C12COc1cc3c(cc12)CCO3` (stereo not drawn) [Example 4.33, 4′-chloro-1′-{[5-(trifluoromethyl)furan-2-yl]methyl}-5,6-dihydrospiro[benzo[1,2-b:5,4-b′]difuran-3,3′-indol]-2′(1′H)-one] yielded a melting point of 166 to 169 °C. Also, in the data set on sodium channel, the IC50 was 1 to 100 nM. The inhibition at 10 µM at CYP3A4 was over 50%.

`O=C1N(C[C@H]2CCCO2)c2cccc(Cl)c2C12COc1cc3c(cc12)CCO3` (stereo partly drawn) [Example 4.34, 4′-chloro-1′-[(2R)-tetrahydrofuran-2-ylmethyl]-5,6-dihydrospiro[benzo[1,2-b:5,4-b′]difuran-3,3′-indol]-2′(1′H)-one] gave a melting point of 78 to 82 °C. In the data set on sodium channel, the IC50 fell in the range of 1 to 100 nM. Moreover, the inhibition at 10 µM at CYP3A4 is under 50%.

For `O=C1N(C[C@H]2CCCO2)c2cccc(Br)c2C12COc1cc3c(cc12)CCO3` (stereo partly drawn) [Example 4.35, 4′-bromo-1′-[(2R)-tetrahydrofuran-2-ylmethyl]-5,6-dihydrospiro[benzo[1,2-b:5,4-b′]difuran-3,3′-indol]-2′(1′H)-one], the melting point was in the range of 137 to 141 °C. Also, the IC50 with sodium channel was 1 to 100 nM. The inhibition at 10 µM at CYP3A4 is over 50%.

The molecule `O=C1N(CC2CCOCC2)c2ccccc2C12COc1cc3c(cc12)OCCO3` (stereo not drawn) [Example 4.37, 1′-(tetrahydro-2H-pyran-4-ylmethyl)-2,3-dihydrospiro[furo[2,3-g][1,4]benzodioxine-8,3′-indol]-2′(1′H)-one] displayed a melting point of 129 to 131 °C. Moreover, the IC50 with sodium channel is 1 to 100 nM. The inhibition at 10 µM on CYP3A4 is under 50%.

`O=C1N(Cc2ccccn2)c2ccccc2C12COc1cc3c(cc12)OCCO3` (stereo not drawn) [Example 4.41, 1′-(pyridin-2-ylmethyl)-2,3-dihydrospiro[furo[2,3-g][1,4]benzodioxine-8,3′-indol]-2′(1′H)-one] had a melting point of 208 to 209 °C. Besides, the IC50 in the data set on sodium channel is 1 to 100 nM. Besides, the inhibition at 10 µM on CYP3A4 is under 50%.

`O=C1N(C[C@H]2CCCO2)c2ccccc2C12COc1cc3c(cc12)OCCO3` (stereo partly drawn) [Example 4.44, 1′-[(2R)-tetrahydrofuran-2-ylmethyl]-2,3-dihydrospiro[furo[2,3-g][1,4]benzodioxine-8,3′-indol]-2′(1′H)-one] had a melting point of 174 to 176 °C. Further, in the data set with sodium channel, the IC50 lay within 1 to 100 nM. On CYP3A4, the inhibition at 10 µM was under 50%.

`COc1ccc(CN2C(=O)C3(COc4cc5c(cc43)OCCO5)c3ccccc32)cc1OC` (stereo not drawn) [Example 4.46, 1′-(3,4-dimethoxybenzyl)-2,3-dihydrospiro[furo[2,3-g][1,4]benzodioxine-8,3′-indol]-2′(1′H)-one] displayed a melting point of 209 to 211 °C. The IC50 in the data set with sodium channel lay in the range of 1 to 100 nM. Further, on CYP3A4, the inhibition at 10 µM is over 50%.

`COc1cc(CN2C(=O)C3(COc4cc5c(cc43)OCCO5)c3ccccc32)cc(OC)c1` (stereo not drawn) [Example 4.47, 1′-(3,5-dimethoxybenzyl)-2,3-dihydrospiro[furo[2,3-g][1,4]benzodioxine-8,3′-indol]-2′(1′H)-one]: the melting point was in the range of 192 to 195 °C. Besides, in the data set with sodium channel, the IC50 was 1 to 100 nM. Further, the inhibition at 10 µM on CYP3A4 was over 50%.
